Data: patent publication US8507533B2, “Glucagon receptor modulators” (Pfizer Inc., priority 2011, dated 2013)

Tests used:
human glucagon receptor [1] = biological target: T1, human glucagon receptor (Homo sapiens (Human), UniProt P47871); experiment: Glucagon cAMP Assay (Cisbio cAMP detection); format: cell-based; conditions: CHOK1 cells stably transfected with the human glucagon receptor; block of glucagon induced cAMP production; Kb by modified Cheng-Prusoff equation
human glucagon receptor [2] = biological target: T1, human glucagon receptor; experiment: Human Glucagon SPA Assay (binding of [125I]Glucagon-Cex); conditions: membrane from chem-1 cells stably transfected with the human glucagon receptor, Ki by Cheng-Prusoff equation

T1 sequence (P47871 26-477): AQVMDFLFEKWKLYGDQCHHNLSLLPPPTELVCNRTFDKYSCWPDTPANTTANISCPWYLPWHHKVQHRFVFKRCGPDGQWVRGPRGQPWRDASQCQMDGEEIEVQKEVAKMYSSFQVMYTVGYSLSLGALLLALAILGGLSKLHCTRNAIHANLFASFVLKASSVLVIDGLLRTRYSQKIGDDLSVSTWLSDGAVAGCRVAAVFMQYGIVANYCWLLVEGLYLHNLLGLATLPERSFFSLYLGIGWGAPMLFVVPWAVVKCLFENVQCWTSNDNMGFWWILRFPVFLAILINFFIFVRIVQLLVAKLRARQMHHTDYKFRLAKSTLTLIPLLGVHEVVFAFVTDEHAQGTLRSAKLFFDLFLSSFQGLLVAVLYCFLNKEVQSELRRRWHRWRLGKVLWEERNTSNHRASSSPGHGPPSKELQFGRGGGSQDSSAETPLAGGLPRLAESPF

Row | SMILES | Kb (human glucagon receptor [1]) [nM] | Ki (human glucagon receptor [2]) [nM]
1 | Cc1cc([C@H](CC(C)C)Nc2ccc(C(=O)NCCC(=O)O)cn2)cc(C)c1-n1cc(C(F)(F)F)cn1 [Example 169, (S)-3-(6-((1-(3,5-dimethyl-4-(4-(trifluoromethyl)-1H-pyrazol-1-yl)phenyl)-3-methylbutyl)amino)nicotinamido)propanoic acid] | 1150 | 193
2 | CCCC(Oc1ccc(-n2cc3cc(C)ccc3n2)cc1)c1ccc(C(=O)NCCC(=O)O)cc1 (centres unmarked) [Example 128, 3-(4-(1-(4-(5-methyl-2H-indazol-2-yl)phenoxy)butyl)benzamido)propanoic acid] | 268 | 208
3 | CCCC(Oc1ccc(-c2cc(C(F)(F)F)nn2C)cc1)c1ccc(C(=O)NCCC(=O)O)cc1 (racemic) [Example 53, (+/−)-3-(4-(1-(4-(1-methyl-3-(trifluoromethyl)-1H-pyrazol-5-yl)phenoxy)butyl)benzamido)propanoic acid] | 2610 | 556
4 | O=C(O)CCNC(=O)c1ccc(C(Nc2ccc(-n3cnc(Cl)c3)nc2)C2CCCC2)cc1 (single isomer, unassigned) [Example 120, 3-(4-((6-(4-chloro-1H-imidazol-1-yl)pyridin-3-ylamino)(cyclopentyl)methyl)benzamido)propanoic acid] | 65 | 225
5 | CCCC(Oc1ccc(-n2cc3cc(F)ccc3n2)cc1)c1ccc(C(=O)NCCC(=O)O)cc1 (racemic) [Example 185, (+/−)-3-(4-{1-[4-(5-fluoro-indazol-2-yl)-phenoxy]-butyl}-benzoylamino)-propionic acid] | 175 | 137
6 | CCCC(Oc1cnc(-n2cc(C(F)(F)F)cn2)c(C)c1)c1ccc(C(=O)NCCC(=O)O)cc1 (racemic) [Example 150, (+/−)-3-(4-(1-(5-methyl-6-(4-(trifluoromethyl)-1H-pyrazol-1-yl)pyridin-3-yloxy)butyl)benzamido)propanoic acid] | 1640 | 446
7 | CCCC(Oc1ccc(-n2cc(Cl)c(C)n2)cc1)c1ccc(C(=O)NCCC(=O)O)cc1 (racemic) [Example 22, (+/−)-3-(4-(1-(4-(4-chloro-3-methyl-1H-pyrazol-1-yl)phenoxy)butyl)benzamido)propanoic acid] | 835 | 665

The next compounds have a lower Ki (human glucagon receptor [2]) than those just listed; values first:

Row | Kb (human glucagon receptor [1]) [nM] | Ki (human glucagon receptor [2]) [nM] | SMILES
8 | 155 | 41 | CC1(C)CC(C(Nc2cnc(-n3cc(C(F)(F)F)cn3)nc2)c2ccc(C(=O)NCCC(=O)O)cc2)C1 (single isomer, unassigned; isomer 2) [Example 158, 3-(4-((3,3-dimethylcyclobutyl)(2-(4-(trifluoromethyl)-1H-pyrazol-1-yl)pyrimidin-5-ylamino)methyl)benzamido)propanoic acid, Isomer 2]
9 | 17 | 7.6 | CC1(C)CC(C(Nc2ccc(-n3cc(C(F)(F)F)cn3)nc2)c2ccc(C(=O)NCCC(=O)O)cc2)C1 (single isomer, unassigned) [Example 114, 3-(4-((3,3-dimethylcyclobutyl)(6-(4-(trifluoromethyl)-1H-pyrazol-1-yl)pyridin-3-ylamino)methyl)benzamido)propanoic acid]
10 | 153 | 132 | CCCC(Nc1ccc(-n2cc(-c3ccccc3)cn2)nc1)c1ccc(C(=O)NCCC(=O)O)cn1 (centres unmarked) [Example 132, (+\−)-3-(6-(1-(6-(4-phenyl-1H-pyrazol-1-yl)pyridin-3-ylamino)butyl)nicotinamido)propanoic acid]
11 | 586 | 89.5 | CCCC(Oc1cc(C)c(-n2cnc(C(F)(F)F)c2)c(C)c1)c1ccc(C(=O)NCCC(=O)O)cc1 (centres unmarked) [Example 141, (+\−)-3-(4-(1-(3,5-dimethyl-4-(4-(trifluoromethyl)-1H-imidazol-1-yl)phenoxy)butyl)benzamido)propanoic acid]
12 | 84.1 | 44.7 | O=C(O)CCNC(=O)c1ccc(C(Nc2cnc(-n3cnc(C(F)(F)F)c3)nc2)C2CCCC2)cc1 (centres unmarked) [Example 193, 3-(4-(cyclopentyl(2-(4-(trifluoromethyl)-1H-imidazol-1-yl)pyrimidin-5-ylamino)methyl)benzamido)propanoic acid]
13 | 67 | 103 | O=C(O)CCNC(=O)c1ccc(C(Oc2ccc(-n3cc4ccccc4n3)cc2)C2CCCC2)cc1 (racemic) [Example 119, (+/−)-3-(4-((4-(2H-indazol-2-yl)phenoxy)(cyclopentyl)methyl)benzamido)propanoic acid]
